Laboratory results from patent publication US12448399B2, “Cereblon-based KRAS degrading PROTACs and uses related thereto” (Arvinas Operations, Inc., priority 2023, dated 2025).

Molecular target: T1, KRas-G12D (Homo sapiens, UniProt P01116, G12D)
T1 construct: insert the HiBiT tag onto the N-terminus of one or more of the endogenous KRas alleles; host or cells: AsPC-1 HiBiT-KRasG12D knock-in clone (one tagged allele, two untagged KRasG12D alleles)
Assay: HiBiT Degradation Assay (G12D), AsPC-1 HiBiT-KRasG12D cells, 24 hr
Assay type: cell-based
Settings: for Dmax: ASPC1, AsPC-1 cells, maximum degradation observed; for DC50: AsPC-1 cells
In short: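 AsPC-1 cells with CRISPR N-terminal HiBiT knock-in on one endogenous KRasG12D allele, treated 24 hr at 37° C with compound titrations in 0.5% DMSO. Lytic HiBiT luminescence normalized to DMSO, fitted to a 4-parameter model for DC50 and Dmax. Parallel alamar blue (4 hr) checked viability.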

T1 sequence (P01116 1-188 isoform P01116-2 G12D): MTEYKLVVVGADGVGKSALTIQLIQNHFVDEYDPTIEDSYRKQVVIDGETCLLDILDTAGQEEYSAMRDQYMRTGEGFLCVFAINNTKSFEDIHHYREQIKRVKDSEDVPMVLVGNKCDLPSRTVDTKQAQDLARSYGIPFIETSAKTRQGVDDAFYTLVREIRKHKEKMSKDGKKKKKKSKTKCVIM

SMILES	Dmax [%]	DC50 [µM]
C#Cc1c(F)ccc2cc(O)cc(-c3ncc4c(N5CC6CCC(C5)N6)nc(OCC5(CN6CCC(CC7CCN(c8ccc9c(c8)CN(C8CCC(=O)NC8=O)C9=O)CC7)CC6)CC5)nc4c3F)c12 (stereo not shown) [Compound 99, 3-{5-[4-({1-[(1-{[(4-{3,8-diazabicyclo[3.2.1]octan-3-yl}-7-(8-ethynyl-7-fluoro-3-hydroxynaphthalen-1-yl)-8-fluoropyrido[4,3-d]pyrimidin-2-yl)oxy]methyl}cyclopropyl)methyl]piperidin-4-yl}methyl)piperidin-1-yl]-1-oxo-2,3-dihydro-1H-isoindol-2-yl}piperidine-2,6-dione]	> 70	< 5.1
C#Cc1c(F)ccc2cc(O)cc(-c3ncc4c(N5CC6CCC(C5)N6)nc(OC[C@@]56CCCN5[C@H](CN5CCN(CC7CCN(c8ccc9c(c8)CN(C8CCC(=O)NC8=O)C9=O)CC7)CC5)CC6)nc4c3F)c12 (stereo partly drawn) [Compound 100, 3-(5-{4-[(4-{[(3S,7aS)-7a-{[(4-{3,8-diazabicyclo[3.2.1]octan-3-yl}-7-(8-ethynyl-7-fluoro-3-hydroxynaphthalen-1-yl)-8-fluoropyrido[4,3-d]pyrimidin-2-yl)oxy]methyl}-hexahydro-1H-pyrrolizin-3-yl]methyl}piperazin-1-yl)methyl]piperidin-1-yl}-1-oxo-2,3-dihydro-1H-isoindol-2-yl)piperidine-2,6-dione]	> 70	< 5.1
C#Cc1c(F)ccc2cc(O)cc(-c3ncc4c(N5CC6CCC(C5)N6)nc(OCCN5CCC(CN6CCN(CC7CCN(c8ccc9c(c8F)CN(C8CCC(=O)NC8=O)C9=O)CC7)CC6)CC5)nc4c3F)c12 (stereo not shown) [Compound 101, 3-[5-[4-[[4-[[1-[2-[4-(3,8-diazabicyclo[3.2.1]octan-3-yl)-7-(8-ethynyl-7-fluoro-3-hydroxy-1-naphthyl)-8-fluoro-pyrido[4,3-d]pyrimidin-2-yl]oxyethyl]-4-piperidyl]methyl]piperazin-1-yl]methyl]-1-piperidyl]-4-fluoro-1-oxo-isoindolin-2-yl]piperidine-2,6-dione]	> 70	< 5.1
C#Cc1c(F)ccc2cc(O)cc(-c3ncc4c(N5CC6CCC(C5)N6)nc(OC[C@@H]5C[C@@H](OC6CCN(c7ccc8c(c7F)CN(C7CCC(=O)NC7=O)C8=O)CC6)CN5C)nc4c3F)c12 (stereo partly drawn) [Compound 103, 3-[5-(4-{[(3R,5S)-5-{[(4-{3,8-diazabicyclo[3.2.1]octan-3-yl}-7-(8-ethynyl-7-fluoro-3-hydroxynaphthalen-1-yl)-8-fluoropyrido[4,3-d]pyrimidin-2-yl)oxy]methyl}-1-methylpyrrolidin-3-yl]oxy}piperidin-1-yl)-4-fluoro-1-oxo-2,3-dihydro-1H-isoindol-2-yl]piperidine-2,6-dione]	> 70	< 5.1
C#Cc1c(F)ccc2cc(O)cc(-c3ncc4c(N5CC6CCC(C5)N6)nc(OC[C@@H]5C[C@@H](OC6CCN(c7ccc8c(c7)CN(C7CCC(=O)NC7=O)C8=O)CC6)CN5C)nc4c3F)c12 (stereo partly shown) [Compound 104]	> 70	< 5.1
C#Cc1c(F)ccc2cc(O)cc(-c3ncc4c(N5CC6CCC(C5)N6)nc(N(C)CCN5CCC(CC6CCN(CC7CCN(c8ccc9c(c8F)CN(C8CCC(=O)NC8=O)C9=O)CC7)CC6)CC5)nc4c3F)c12 (stereo not shown) [Compound 105]	≤ 25	< 5.1
C#Cc1c(F)ccc2cc(O)cc(-c3ncc4c(N5CC6CCC(C5)N6)nc(OCCN5CCC(OC6CCN(CC7CCN(c8ccc9c(c8F)CN(C8CCC(=O)NC8=O)C9=O)CC7)CC6)CC5)nc4c3F)c12 (stereo not shown) [Compound 106, 3-{5-[4-({4-[(1-{2-[(4-{3,8-diazabicyclo[3.2.1]octan-3-yl}-7-(8-ethynyl-7-fluoro-3-hydroxynaphthalen-1-yl)-8-fluoropyrido[4,3-d]pyrimidin-2-yl)oxy]ethyl}piperidin-4-yl)oxy]piperidin-1-yl}methyl)piperidin-1-yl]-4-fluoro-1-oxo-2,3-dihydro-1H-isoindol-2-yl}piperidine-2,6-dione]	> 70	< 5.1
C#Cc1c(F)ccc2cc(O)cc(-c3cnc4c(N5CC6CCC(C5)N6)nc(OCCN5CCC(CC6CCN(CC7CCN(c8ccc9c(c8F)CN(C8CCC(=O)NC8=O)C9=O)CC7)CC6)CC5)nc4c3)c12 (stereo not shown) [Compound 107]	–	> 1
C#Cc1c(F)ccc2cc(O)cc(-c3ccc4c(N5CC6CCC(C5)N6)nc(OCCN5CCC(CC6CCN(CC7CCN(c8ccc9c(c8F)CN(C8CCC(=O)NC8=O)C9=O)CC7)CC6)CC5)nc4c3)c12 (stereo not shown) [Compound 108]	≤ 25	< 5.1
C#Cc1c(F)ccc2cc(O)cc(-c3ncc4c(N5CC6CCC(C5)N6)nc(OCCN5CCC(CC6CCN(CC7CCN(c8ccc9c(c8Cl)CN(C8CCC(=O)NC8=O)C9=O)CC7)CC6)CC5)nc4c3F)c12 (stereo not shown) [Compound 109, 3-(5-(4-((4-((1-(2-((4-(-3,8-diazabicyclo[3.2.1]octan-3-yl)-7-(8-ethynyl-7-fluoro-3-hydroxynaphthalen-1-yl)-8-fluoropyrido[4,3-d]pyrimidin-2-yl)oxy)ethyl)piperidin-4-yl)methyl)piperidin-1-yl)methyl)piperidin-1-yl)-4-chloro-1-oxoisoindolin-2-yl)piperidine-2,6-dione]	> 70	< 5.1
C#Cc1c(F)ccc2cc(O)cc(-c3ncc4c(N5CC6CCC(C5)N6)nc(OCCN5CCC(CC6CCN(CC7CCN(c8ccc9c(c8)C(=O)N(C8CCC(=O)NC8=O)C9)CC7)CC6)CC5)nc4c3F)c12 (stereo not shown) [Compound 110, 3-{6-[4-({4-[(1-{2-[(4-{3,8-diazabicyclo[3.2.1]octan-3-yl}-7-(8-ethynyl-7-fluoro-3-hydroxynaphthalen-1-yl)-8-fluoropyrido[4,3-d]pyrimidin-2-yl)oxy]ethyl}piperidin-4-yl)methyl]piperidin-1-yl}methyl)piperidin-1-yl]-1-oxo-2,3-dihydro-1H-isoindol-2-yl}piperidine-2,6-dione]	> 70	< 5.1
C#Cc1c(F)ccc2cc(O)cc(-c3ncc4c(N5CC6CCC(C5)N6)nc(OCCN5CCC(CN6CCN(CC7CCN(c8ccc9c(c8)CN(C8CCC(=O)NC8=O)C9=O)CC7)CC6)CC5)nc4c3F)c12 (stereo not shown) [Compound 111, 3-[5-[4-[[4-[[1-[2-[4-(3,8-diazabicyclo[3.2.1]octan-3-yl)-7-(8-ethynyl-7-fluoro-3-hydroxy-1-naphthyl)-8-fluoro-pyrido[4,3-d]pyrimidin-2-yl]oxyethyl]-4-piperidyl]methyl]piperazin-1-yl]methyl]-1-piperidyl]-1-oxo-isoindolin-2-yl]piperidine-2,6-dione]	> 70	< 5.1
C#Cc1c(F)ccc2cc(O)cc(-c3ncc4c(N5CC6CCC(C5)N6)nc(OC[C@@H]5C[C@@H](OC6CCN(CC7(F)CCN(c8ccc9c(c8F)CN(C8CCC(=O)NC8=O)C9=O)CC7)CC6)CN5C)nc4c3F)c12 (stereo partly drawn) [Compound 112, 3-(5-{4-[(4-{[(3R,5S)-5-{[(4-{3,8-diazabicyclo[3.2.1]octan-3-yl}-7-(8-ethynyl-7-fluoro-3-hydroxynaphthalen-1-yl)-8-fluoropyrido[4,3-d]pyrimidin-2-yl)oxy]methyl}-1-methylpyrrolidin-3-yl]oxy}piperidin-1-yl)methyl]-4-fluoropiperidin-1-yl}-4-fluoro-1-oxo-2,3-dihydro-1H-isoindol-2-yl)piperidine-2,6-dione]	> 70	< 5.1
